The source of these data is patent US6022885A, “Pyrrolidine and thiazole derivatives with antibacterial and . metallo-.beta-lactamase inhibitory properties” (SmithKline Beecham p.l.c., priority 1995, dated 2000).

Read-outs that look alike come from different tables or passages of the source. Where only a bound is given, the exact number is not on record here.

In assay [1] the target is B. fragilis CfiA metallo-β-lactamase (Bacteroides fragilis, UniProt P25910). Description: I50 screen, nitrocefin reporter substrate. In kind it is biochemical. The following applies: 25 mM PIPES pH 7, 37° C., nitrocefin 91 μM, 5 minute preincubation, Zn^2+ 100 μM. Here is the method: (§1) The inhibitory activity of the compounds of the invention was measured in 25 mM PIPES pH 7 buffer at 10 concentrations (1000, 333, 111, 37, 12.3, 4.1, 1.4 0.46, 0.15 and 0.05 μM) at 37° C. using nitrocefin (91 μM, final concentration) as the reporter substrate. The assays were performed with a 5 minute preincubation of enzyme and inhibitor and were conducted in the presence of added zinc sulphate (Zn^2+ 100 μM, final concentration). The methodology is described in detail in the following references: Payne et al (1991), J. Antimicrob. Chemother., 28:255; Payne et al (1994), Antimicrob. Agents and Chemother., 38:767.

Assay [2] has as its target T1, Bacillus cereus II metallo-β-lactamase (Bacillus cereus, UniProt P04190).
T1 construct: nitrocefin assay with added zinc
The assay is described as follows: I50 screen, nitrocefin reporter substrate. In kind it is biochemical. The following applies: 25 mM PIPES pH 7, 37° C., nitrocefin 91 μM, 5 minute preincubation, Zn^2+ 100 μM. As to the method: as §1

For assay [3], the target named is T2, Xanthomonas maltophilia L-1 metallo-β-lactamase (Stenotrophomonas maltophilia, UniProt P52700).
T2 construct: nitrocefin assay with added zinc
The assay is described as follows: I50 screen, nitrocefin reporter substrate. It counts as biochemical. As to conditions: 25 mM PIPES pH 7, 37° C., nitrocefin 91 μM, 5 minute preincubation, Zn^2+ 100 μM. As to the method: as §1

The next assay relates to B. fragilis 460. The assay is described as follows: Antibacterial activity (MIC) alone and in combination with carbapenem antibiotics, B. fragilis 460. It counts as cell-based, Bacteroides fragilis. The text has this:
(§2) Antibacterial activity of compounds of the invention in combination with carbapenem antibiotics against strains of Bacteroides fragllis which produce metallo-β-lactamase:
(§3) [MIC =minimum inhibitory concentration (μg/ml)]

For a further assay, the system named is B. fragilis 262. The assay is described as follows: Antibacterial activity (MIC) alone and in combination with carbapenem antibiotics, B. fragilis 262. In kind it is cell-based, Bacteroides fragilis.
Text: as §2, §3

Where [4] appears, read: read-out: I50 values against B. fragilis CfiA metallo-β-lactamase.
Where [5] appears, read: I50 values against B. fragilis CfiA metallo-β-lactamase.
Setting [6] is: Bacteroides fragilis, alone, B. fragilis 460, CfiA, read-out: MIC alone.
[7] abbreviates: Bacteroides fragilis, alone, B. fragilis 262, CfiA, read-out: MIC alone.

T1 sequence (P04190 31-257): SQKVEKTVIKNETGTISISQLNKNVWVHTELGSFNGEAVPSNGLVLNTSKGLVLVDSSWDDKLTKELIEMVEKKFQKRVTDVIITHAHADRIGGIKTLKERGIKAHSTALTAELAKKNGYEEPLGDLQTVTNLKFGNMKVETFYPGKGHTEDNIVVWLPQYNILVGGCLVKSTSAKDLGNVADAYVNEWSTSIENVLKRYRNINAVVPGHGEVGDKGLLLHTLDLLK
T2 sequence (P52700 34-290): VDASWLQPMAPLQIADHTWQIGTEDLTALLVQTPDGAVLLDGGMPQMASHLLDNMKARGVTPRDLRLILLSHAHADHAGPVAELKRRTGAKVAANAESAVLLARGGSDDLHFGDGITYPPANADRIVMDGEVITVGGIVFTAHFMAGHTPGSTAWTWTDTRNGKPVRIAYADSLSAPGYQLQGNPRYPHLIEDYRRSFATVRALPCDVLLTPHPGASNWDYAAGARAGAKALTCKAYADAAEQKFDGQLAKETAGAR
Chain of B. fragilis CfiA metallo-β-lactamase (P25910 19-249): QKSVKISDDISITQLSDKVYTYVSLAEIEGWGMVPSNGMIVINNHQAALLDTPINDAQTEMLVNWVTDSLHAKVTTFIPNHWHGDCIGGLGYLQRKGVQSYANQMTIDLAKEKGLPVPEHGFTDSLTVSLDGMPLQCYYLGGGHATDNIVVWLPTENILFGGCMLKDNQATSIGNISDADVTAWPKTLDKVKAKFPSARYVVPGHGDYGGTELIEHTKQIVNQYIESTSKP

Regarding `CC1(C)[C@H](C(=O)O)N(C(=O)[C@@H](CS)Cc2ccccc2)C[S+]1[O-]` (single isomer, unassigned) [Example 26], the IC50 in assay [1] (setting [4]) was less than 1 µM.
For the molecule `CC1(C)[C@H](C(=O)O)N(C(=O)[C@@H](CS)Cc2ccccc2)C[S+]1[O-]` (single isomer, unassigned) [Example 27], the “activity against Bacillus cereus II metallo-β-lactamase” value in assay [2] is listed as “weak but significant activity”. For the same molecule, the “activity against Xanthomonas maltophilia L-1 metallo-β-lactamase” value in assay [3] was “weak but significant activity”.
As for `O=C(O)[C@H]1CSCN1C(=O)C(CS)Cc1ccccc1` (single isomer, unassigned) [Example 30, 3-[2'(R or S)-benzyl-3'-mercaptopropionyl]-4(S)-carboxythiazolidine], in assay [1] (setting [4]), the IC50 was less than 500 µM.
On the same count and under the same terms, as for `O=C(O)[C@H]1CSCN1C(=O)C(CS)Cc1ccccc1` (single isomer, unassigned) [Example 31, 3-[2'(S or R)-benzyl-3'-mercaptopropionyl]-4(S)-carboxythiazolidine], the figure is less than 500 µM.
With `CC1(C)SCN(C(=O)C(CS)Cc2ccccc2)[C@H]1C(=O)O` (stereo partly drawn) [Example 2, 3-[2'(RS)-benzyl-3'-mereaptopropionyl]-4(S)-carboxy-5,5-dimethylthiazolidine], the IC50 in assay [1] (setting [4]) is less than 1 µM.
Take `CC(CS)C(=O)N1CCC[C@@H]1C(=O)O` (stereo partly drawn) [Example 4, N-[3'-Mercapto-2'(RS)-methylpropionyl]-D-proline]: in assay [1] (setting [5]), the IC50 is less than 500 µM.
In turn, `C[C@H](CS)C(=O)N1CCC[C@@H]1C(=O)O` [Example 6, N-(3'-mercapto-2'(S)-methylpropionyl)-D-proline] gave an IC50 in assay [1] (setting [5]) of less than 500 µM.
In the case of `CC1(C)SCN(C(=O)CCS)[C@H]1C(=O)O` [Example 8, 3-[3'-Mercaptopropionyl]-4(S)-carboxy-5,5-dimethylthiazolidine], in assay [1] (setting [4]), the IC50 is less than 500 µM.
With `CC1(C)SCN(C(=O)C(CS)Cc2ccccc2)[C@@H]1C(=O)O` (stereo partly drawn) [Example 12, 3-[2'(RS)-benzyl-3'-mercaptopropionyl]-4(R)-carboxy-5,5-dimethylthiazolidine], the IC50 in assay [1] (setting [4]) is less than 500 µM.
As to `CC(CS)C(=O)N1CSC(C)(C)[C@@H]1C(=O)O` (stereo partly drawn) [Example 14, 3-[3'-Mercapto-2'(S)-methylpropionyl]-4(S)-carboxy-5,5-dimethylthiazolidine], in assay [1] (setting [4]), the IC50 is less than 500 µM.
Turning to `O=C(O)[C@H]1CCCN1C(=O)C(CS)Cc1ccccc1` (stereo partly drawn) [Example 16, N-[2'(PS)-benzyl-3'-mercaptopropionyl]-D-proline], the IC50 in assay [1] (setting [4]) is less than 500 µM.
As for `O=C(O)[C@H]1CSCN1C(=O)C(CS)Cc1ccccc1` (stereo partly drawn) [Example 18, 3-[2'(RS)-benzyl-3'-mercaptopropionyl]-4(S)-carboxythiazolidine], the IC50 in assay [1] (setting [4]) was less than 500 µM.
For `CC1(C)SCN(C(=O)C(CS)Cc2ccccc2)C1C(=O)O` [Example 19, 3-[2'(R)-benzyl-3'-mercaptopropionyl]-4(S)-carboxy-5,5-dimethylthiazolidine], in assay [2], the “activity against Bacillus cereus II metallo-β-lactamase” value is “weak but significant activity”. For the same molecule, the “activity against Xanthomonas maltophilia L-1 metallo-β-lactamase” value in assay [3] is reported as “weak but significant activity”.
Take `CC1(C)SCN(C(=O)[C@@H](CS)Cc2ccccc2)[C@H]1C(=O)O` [Example 20, 3-[2'(S)-benzyl-3'-mercaptopropionyl]-4(S)-carboxy-5,5-dimethylthiazolidine]: the MIC in the assay on B. fragilis 460 (setting [6]) and in the assay on B. fragilis 262 (setting [7]) was more than 512 µg/mL throughout. Moreover, in assay [1] (setting [4]), the IC50 is less than 1 µM.
With `CC(CS)C(=O)N1CSC(C)(C)C1C(=O)O` [Example 21, 3-[3'-Mercapto-2'(R)-methylpropionyl]-4(S)-carboxy-5,5-dimethylthiazolidine], the “activity against Bacillus cereus II metallo-β-lactamase” value in assay [2] is reported as “weak but significant activity”. For the same molecule, the “activity against Xanthomonas maltophilia L-1 metallo-β-lactamase” value in assay [3] was “weak but significant activity”.
Take `CC(CS)C(=O)N1CSC(C)(C)C1C(=O)O` [Example 23, 3-[Mercapto-2'(S)-methylpropionyl]-4(R)-carboxy-5,5-dimethylthiazolidine]: the IC50 in assay [1] (setting [4]) was less than 500 µM.
Take `O=C(O)[C@@H]1CCCN1C(=O)C(CS)Cc1ccccc1` (stereo partly drawn) [Example 25, N-[2'(RS)-benzyl-3'-mercaptopropionyl]-L-proline]: the IC50 in assay [1] (setting [4]) is less than 500 µM.
For the molecule `CC1(C)SCN(C(=O)[C@@H](CS)Cc2ccccc2)[C@@H]1C(=O)O` [Example 28, 3-[2'(S)-benzyl-3'-mercaptopropionyl]-4(R)-carboxy-5,5-dimethylthiazolidine], in assay [1] (setting [4]), the IC50 was less than 500 µM.
Regarding `CC1(C)SCN(C(=O)[C@H](CS)Cc2ccccc2)[C@@H]1C(=O)O` [Example 29, 3-[2'(R)-benzyl-3'-mercaptopropionyl]-4(R)-carboxy-5,5-dimethylthiazolidine], in assay [1] (setting [4]), the IC50 was less than 500 µM.
With `CC1(C)SCN(C(=O)C(CS)CCc2ccccc2)[C@H]1C(=O)O` (stereo partly drawn) [Example 32, 3-[2'(RS)-mercaptomethyl-4'-phenylbutanoyl]-4(S)-carboxy-5,5-dimethylthiazolidine], the IC50 in assay [1] (setting [4]) is less than 500 µM.
Same read-out and setting: next, `O=C(O)[C@H]1CSCN1C(=O)C(CS)CCCc1ccccc1` (stereo partly drawn) [Example 33, 3-[2'(RS)-mercaptomethyl-5'-phenylpentanoyl]-4(S)-carboxythiazolidine]: less than 500 µM.
Consider `C[C@@H](O)[C@H]1C(=O)N2C(C(=O)O)=C(SCCN=CN)C[C@H]12` [Imipenem], for which the MIC (usually the lowest concentration found to suppress growth) in the assay with B. fragilis 460 (setting [6]) amounted to 16 µg/mL; with B. fragilis 262 (setting [7]), 4 µg/mL.
Consider `C[C@@H](O)[C@H]1C(=O)N2C(C(=O)O)=C(S[C@@H]3CN[C@H](C(=O)N(C)C)C3)[C@H](C)[C@H]12` [Meropenem], for which the MIC stood at 128 µg/mL in the assay with B. fragilis 460 (Bacteroides fragilis, 460, read-out: MIC alone) and 128 µg/mL with B. fragilis 262 (Bacteroides fragilis, 262, read-out: MIC alone).
`C[C@H](CS)C(=O)N1CCC[C@H]1C(=O)O` [captopril, N-(3'-mercapto-2'(S)-methylpropionyl)-L-proline, reference compound]: the “activity against Bacillus cereus II metallo-β-lactamase” value in assay [2] is reported as “weak but significant activity”. Further, the “activity against Xanthomonas maltophilia L-1 metallo-β-lactamase” value in assay [3] is listed as “weak but significant activity”.
